Structures can show the parent of a compound that is named as a salt.
Assays:
myocyte cAMP = test: Whole cell cAMP in isolated rabbit myocytes; assay type: cell-based
Text: This is consistent with prior studies showing locally generated cAMP from β-AR and its modulation by PDE3 occur in local subcellular domains that are not easily detected in whole cell lysates32.

adult rabbit myocytes = test: Contraction and calcium transients in isolated rabbit cardiomyocytes; assay type: cell-based; details: for decay kinetics / relaxation times / peak-Ca2+ transient / percent sarcomere shortening: agent alone: Cil 1 μM, Compound 1 1 μM, Iso non-saturating dose
Method: To test whether PDE1 inhibition directly impacts cardiomyocyte contraction and calcium transients, studies are carried out on normal adult rabbit myocytes. […] As PDE1 requires sufficient cAMP and Ca^2+ to be impactful, a dose response was performed to the adenylate cyclase activator, forskolin (FSK) to determine the lowest dose producing a modest but significant inotropic effect (1 μM).
Rabbit myocytes were isolated to determine the effect of PDE1 inhibition on cardiomyocyte contraction and whole cell Ca2+ transients, and to compare the results to those with a PDE3 inhibitor, cilostamide (Cil, 1 μM).
An alternative approach to augmenting cAMP independent of […] is to directly stimulate adenylate cyclase using forskolin (Fsk). A dose response study was carried out to identify a non-saturating Fsk dose that still generated significant inotropic effects (1 μM).

[1] = test system: normal and failing canine hearts; test: Conscious dog pressure-volume hemodynamic analysis, normal and failing hearts; assay type: in vivo; details: dobutamine 10 μg/kg/min alone
Text: Dogs are studied in the conscious state before and after inducing dilated cardiomyopathy by tachypacing for two weeks at 200 bpm. […]
Load insensitive indexes of contractility (dP/dtmax/IP and PRSW) increased.

plasma cAMP and cGMP = test: Plasma cAMP and cGMP by ELISA in dogs; assay type: in vivo, dog
Method: Blood plasma is obtained from these animals, and cAMP and cGMP are assayed by ELISA.

[2] = test system: rabbit heart and vasculature; test: Anesthetized rabbit pressure-volume hemodynamics with or without esmolol or MRS-1754; assay type: in vivo; details: for effect of blocker on Compound 1 responses: atrially paced, fixed heart rate; for impact of inhibitor pre-treatment alone on cardiovascular hemodynamics: rabbit, in vivo
Text: Cyclic AMP is generated largely by transmembrane adenylyl cyclases activated via stimulatory G protein (Gs), with β-adrenergic, adenosine (primarily A2B), glucagon, prostanoids, histamine, and serotonin all coupling to Gs in cardiomyocytes. The present studies focus on beta-adrenergic and adenosine receptors, and for the latter, concentrated on the A2B receptor, which has been reported to directly stimulate cAMP-dependent contractility. […] Relaxation changes are also modest with LV preload (end-diastolic and volume) unaltered; however, the combined vasodilator-inotropic response doubled ventricular/arterial coupling ratio, Ees/Ea.
New Zealand White rabbits (male, 2-3 kg) are sedated with 35 mg/kg ketamine and 5 mg/kg xylazine, intubated and ventilated (Model 683, Harvard Apparatus, Holliston, Mass.), with anesthesia maintained with isoflurane inhalation (1-2%). A pressure-volume catheter (SPR-894, Millar, Inc., Houston, Tex.) is inserted via the common carotid artery and advanced to the LV apex, and a 2-Fr pacing catheter is positioned in the right atrium via the right jugular vein to provide atrial pacing. […] The parallel conductance is determined by the hypertonic saline injection method. Rabbits are infused with 6% hetastarch in saline during the procedure to stabilize arterial pressure.

[3] = agent added to non-saturating Iso
[4] = agent alone: Iso 50 nM, Compound 1 up to 1 mM, IBMX 100 μM

CN(C(=O)CCCOc1ccc2[nH]c(=O)ccc2c1)C1CCCCC1 [Cil, cilostamide]
whole cell cAMP (myocyte cAMP; agent added to Fsk): unaltered | whole cell cAMP (myocyte cAMP; agent alone): did not measurably increase whole cell cAMP | whole cell cAMP (myocyte cAMP; agent combined with Iso): did not measurably increase whole cell cAMP | Ca2+ transient decay rate (adult rabbit myocytes; agent added to Fsk 1 μM): faster decay of the Ca2+ transient | peak Ca2+ transient (adult rabbit myocytes; agent added to Fsk 1 μM): increase | sarcomere shortening (adult rabbit myocytes; agent added to Fsk 1 μM): increase in sarcomere shortening | peak-Ca2+ (adult rabbit myocytes; [3]): remained elevated over baseline | sarcomere shortening (adult rabbit myocytes; [3]): further increased sarcomere shortening | decay kinetics / relaxation times (adult rabbit myocytes): accelerated | peak-Ca2+ transient (adult rabbit myocytes): rose | percent sarcomere shortening (adult rabbit myocytes): rose

CC(CCc1ccc(O)cc1)NCCc1ccc(O)c(O)c1 (centres unmarked) [Dobutamine, dobutamine, reference compound]
PV loop area (stroke work) [1]: increased PV loop area | plasma cAMP (plasma cAMP and cGMP; HF dogs, single drugs): not significantly changed | plasma cGMP (plasma cAMP and cGMP; all conditions, normal and HF models): remains unchanged | plasma cAMP (plasma cAMP and cGMP; normal dogs): augmented plasma cAMP

CC(C)Cn1c(=O)n(C)c(=O)c2[nH]cnc21 [IBMX]
contraction/calcium decay time or rates (adult rabbit myocytes; [4]): increased | peak Ca2+ transient (adult rabbit myocytes; [4]): did not alter peak calcium transients | sarcomere shortening (adult rabbit myocytes; [4]): increased shortening

CCCn1c(=O)c2[nH]c(-c3ccc(OCC(=O)Nc4ccc(C#N)cc4)cc3)nc2n(CCC)c1=O [MRS-1754, reference compound]
effect of blocker on cardiovascular responses to Compound 1 (heart rate, contractility, vasodilation) ([2]; MRS-1754 1 mg/kg iv before Compound 1 0.1 mg/kg): eliminated all of the cardiovascular responses to Compound 1 | effect of blocker on Compound 1 responses [2]: fully blocked | impact of inhibitor pre-treatment alone on cardiovascular hemodynamics [2]: Neither inhibitor pre-treatment alone has a significant impact

COC(=O)CCc1ccc(OCC(O)CNC(C)C)cc1 (centres unmarked) [esmolol, esmolol HCl, reference compound]
effect of blocker on Compound 1 responses [2]: unaltered | block of cardiac responses to 10 μg/kg/min dobutamine ([2]; esmolol 0.5 mg/kg bolus then 0.05 mg/kg/min): effectively blocked | impact of inhibitor pre-treatment alone on cardiovascular hemodynamics [2]: Neither inhibitor pre-treatment alone has a significant impact

C=C[C@@]1(C)CC(=O)[C@]2(O)[C@@]3(C)[C@@H](O)CCC(C)(C)[C@@H]3[C@H](O)[C@H](OC(C)=O)[C@@]2(C)O1 [forskolin]
lowest (non-saturating) dose producing a modest but significant inotropic effect (adult rabbit myocytes; dose response): 1 µM

CC(C)NCC(O)c1ccc(O)c(O)c1 (centres unmarked) [isoproterenol]
whole cell cAMP (myocyte cAMP; agent alone): did not measurably increase whole cell cAMP | decay kinetics / relaxation times (adult rabbit myocytes): quickened relaxation times | peak-Ca2+ transient (adult rabbit myocytes): increased | percent sarcomere shortening (adult rabbit myocytes): increased | contraction/calcium decay time or rates (adult rabbit myocytes; [4]): accelerates the decay time of both | peak Ca2+ transient (adult rabbit myocytes; [4]): increases | sarcomere shortening (adult rabbit myocytes; [4]): increases
